According to patent US20050222207A1, “Phosphodiesterase 4 inhibitors, including N-substituted diarylamine analogs” (priority 2003, published 2005):

Experiments:
[1] = tested on: rats; assay: Passive avoidance in rats, in vivo test for learning and memory (MK-801 amnesia); design: species or system rat; conditions: MK-801 0.1 mg/kg, retention test 24 hours after shock, compared to vehicle, p<0.001
Protocol: The test was performed as previously described (Zhang, H.-T., Crissman, A. M., Dorairaj, N. R., Chandler, L. J., and O'Donnell, J. M., Neuropsychopharmacology, 2000, 23, 198-204.). The apparatus (Model E10-16SC, Coulbourn Instruments, Allentown, Pa.) consisted of a two-compartment chamber with an illuminated compartment connected to a darkened compartment by a guillotine door. The floor of the darkened compartment consisted of stainless steel rods through which an electric foot-shock could be delivered from a constant current source. All experimental groups were first habituated to the apparatus the day before the start of the experiment. During the training, the rat (Male Spraque-Dawley (Harlan) weighing 250 to 350 g) was placed in the illuminated compartment facing away from the closed guillotine door for 1 minute before the door was raised. The latency for entering the darkened compartment was recorded. After the rat entered the darkened compartment, the door was closed and a 0.5 mA electric shock was administered for 3 seconds. […] The latency for entering the darkened compartment was recorded for up to 180 seconds, at which time the trial was terminated.
(§1) All data were analyzed by analyses of variance (ANOVA); individual comparisons were made using Kewman-Keuls tests. […]

[2] = tested on: rats; assay: Radial arm maze task in rats, in vivo test for learning and memory (MK-801 amnesia); design: species or system rat; conditions: MK-801 0.1 mg/kg i.p., compared to control, p<0.01
Protocol: The test was performed as previously described (Zhang, H.-T., Crissman, A. M., Dorairaj, N. R., Chandler, L. J., and O'Donnell, J. M., Neuropsychopharmacology, 2000, 23, 198-204.). Five days after initial housing, rats (male Spraque-Dawley (Harlan) weighing 250 to 350 g) were placed in the eight-arm radial maze (each arm was 60×10×12 cm high; the maze was elevated 70 cm above the floor) for acclimation for two days. Rats were then placed individually in the center of the maze for 5 minutes with food pellets placed close to the food wells, and then, the next day, in the wells at the end of the arms; 2 sessions a day were conducted. Next, four randomly selected arms were then baited with one pellet of food each. The rat was restricted to the center platform (26 cm in diameter) for 15 seconds and then allowed to move freely throughout the maze until it collected all pellets of food or 10 minutes passed, whichever came first. Four parameters were recorded: 1) working memory errors, i.e., entries into baited arms that had already been visited during the same trial; 2) reference memory errors, i.e., entries into unbaited arms; 3) total arm entries; and 4) the test duration (seconds), i.e., the time spent in the collection of all the pellets in the maze. […]
as §1

Compound | latency for entering the darkened compartment [1] | frequency of reference memory errors [2] | frequency of working memory errors [2] | melting point
C[C@]12N[C@H](Cc3ccccc31)c1ccccc12 [MK-801] | markedly reduced | increased | increased | –
COc1cc(N(Cc2cncs2)c2ccc(C(=O)O)cc2)ccc1C(N)=O | – | – | – | 196.7 to 196.8 °C
